According to US11129827B2 (priority 2017, dated 2021):
Where two headings read alike, the source gives them in different places.

How the values were obtained:
MAGL = MAGL (Homo sapiens (Human), UniProt Q99685); test: biochemical; conditions: for inhibition at 1 µM: read-out: MAGL (human) % inh. 1 μM
FAAH = FAAH (Homo sapiens (Human), UniProt O00519); test: biochemical; conditions: for inhibition at 1 µM: read-out: FAAH (human) % inh. 1 μM

SMILES: O=C(Oc1cncc(C(F)(F)F)c1)N1CCC2(CC1)CC(Oc1cccc(C(F)(F)F)c1)C2 [Example 1, 5-(Trifluoromethyl)pyridin-3-yl 2-(3-(trifluoromethyl)phenoxy)-7-azaspiro[3.5]nonane-7-carboxylate]
- inhibition at 1 µM (MAGL): > 75%
- IC50 (MAGL; read-out: MAGL (human) IC50): < 100 nM
- inhibition at 1 µM (FAAH): > 75%
- IC50 (FAAH; read-out: FAAH (human) IC50): < 100 nM

SMILES: O=C(Oc1cncc(C(F)(F)F)c1)N1CCC2(CC1)CN(Cc1ccc(Oc3cccc(Cl)c3)cc1)C2 [Example 2, 5-(Trifluoromethyl)pyridin-3-yl 2-(4-(3-chlorophenoxy)benzyl)-2,7-diazaspiro[3.5]nonane-7-carboxylate]
- IC50 (MAGL; read-out: MAGL (human) IC50): 100 to 1000 nM
- IC50 (FAAH): 1000 to 10000 nM

SMILES: NC(=O)c1cncc(OC(=O)N2CCC3(CCN(Cc4cc(Cl)cc(C(F)(F)F)c4)C3)CC2)c1 [Example 3, 5-Carbamoylpyridin-3-yl 2-(3-chloro-5-(trifluoromethyl)benzyl)-2,8-diazaspiro[4.5]decane-8-carboxylate]
- inhibition at 1 µM (MAGL): > 75%
- IC50 (MAGL; read-out: MAGL (human) IC50): < 100 nM
- inhibition at 1 µM (FAAH): > 75%
- IC50 (FAAH; read-out: FAAH (human) IC50): < 100 nM

SMILES: NC(=O)c1cncc(OC(=O)N2CCC3(CC2)CN(Cc2cccc(Oc4ccc(Cl)cc4)c2)C3)c1 [Example 5, 5-Carbamoylpyridin-3-yl 2-(3-(4-chlorophenoxy)benzyl)-2,7-diazaspiro[3.5]nonane-7-carboxylate]
- inhibition at 1 µM (MAGL): > 75%
- IC50 (MAGL; read-out: MAGL (human) IC50): < 100 nM
- inhibition at 1 µM (FAAH): > 75%
- IC50 (FAAH; read-out: FAAH (human) IC50): < 100 nM

SMILES: O=C(Oc1cncc(C(F)(F)F)c1)N1CCC2(CC1)CN(Cc1ccc(Oc3ccccc3Cl)cc1)C2 [Example 8, 5-(Trifluoromethyl)pyridin-3-yl 2-(4-(2-chlorophenoxy)benzyl)-2,7-diazaspiro[3.5]nonane-7-carboxylate]
- IC50 (MAGL): < 100 nM
- IC50 (FAAH; read-out: FAAH (human) IC50): 100 to 1000 nM

SMILES: O=C(Oc1cncc(C(F)(F)F)c1)N1CCC2(CC1)CN(Cc1cccc(Oc3ccccc3Cl)c1)C2 [Example 9, 5-(Trifluoromethyl)pyridin-3-yl 2-(3-(2-chlorophenoxy)benzyl)-2,7-diazaspiro[3.5]nonane-7-carboxylate]
- IC50 (MAGL; read-out: MAGL (human) IC50): 100 to 1000 nM
- IC50 (FAAH; read-out: FAAH (human) IC50): 100 to 1000 nM

SMILES: O=C(Oc1cncc(C(F)(F)F)c1)N1CCC2(CC1)CN(Cc1cccc(Oc3cccc(Cl)c3)c1)C2 [Example 10, 5-(Trifluoromethyl)pyridin-3-yl 2-(3-(3-chlorophenoxy)benzyl)-2,7-diazaspiro[3.5]nonane-7-carboxylate]
- IC50 (MAGL; read-out: MAGL (human) IC50): < 100 nM
- IC50 (FAAH; read-out: FAAH (human) IC50): < 100 nM

SMILES: O=C(Oc1cncc(C(F)(F)F)c1)N1CCC2(CC1)CN(Cc1cccc(Oc3cncnc3)c1)C2 [Example 11, 5-(Trifluoromethyl)pyridin-3-yl 2-(3-(pyrimidin-5-yloxy)benzyl)-2,7-diazaspiro[3.5]nonane-7-carboxylate]
- IC50 (MAGL; read-out: MAGL (human) IC50): 100 to 1000 nM
- IC50 (FAAH; read-out: FAAH (human) IC50): 100 to 1000 nM

SMILES: O=C(Oc1cncc(C(F)(F)F)c1)N1CCC2(CC1)CN(Cc1cccc(Oc3cccc(C(F)(F)F)n3)c1)C2 [Example 12, 5-(Trifluoromethyl)pyridin-3-yl 2-(3-((6-(trifluoromethyl)pyridin-2-yl)oxy)benzyl)-2,7-diazaspiro[3.5]nonane-7-carboxylate]
- inhibition at 1 µM (MAGL): > 75%
- inhibition at 1 µM (FAAH): 50 to 75%

SMILES: O=C(Oc1cncc(C(F)(F)F)c1)N1CCC2(CC1)CN(Cc1cccc(Oc3ccccc3Cl)c1Cl)C2 [Example 13, 5-(Trifluoromethyl)pyridin-3-yl 2-(2-chloro-3-(2-chlorophenoxy)benzyl)-2,7-diazaspiro[3.5]nonane-7-carboxylate]
- inhibition at 1 µM (MAGL): > 75%
- inhibition at 1 µM (FAAH): 50 to 75%

SMILES: O=C(Oc1cncc(C(F)(F)F)c1)N1CCC2(CC1)CN(Cc1ccc(Cl)c(Oc3ccccc3)c1Cl)C2 [Example 14, 5-(Trifluoromethyl)pyridin-3-yl 2-(2,4-dichloro-3-phenoxybenzyl)-2,7-diazaspiro[3.5]nonane-7-carboxylate]
- inhibition at 1 µM (MAGL): > 75%
- inhibition at 1 µM (FAAH): 50 to 75%

SMILES: CC(C)Oc1cc(CN2CCN(C(=O)Oc3cncc(C(N)=O)c3)[C@@H](C)C2)ccc1Cl [Example 57, (S)-5-Carbamoylpyridin-3-yl 4-(4-chloro-3-isopropoxybenzyl)-2-methylpiperazine-1-carboxylate]
- inhibition at 1 µM (MAGL): > 75%
